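Protocol summary: plate cells (96-well), add compound at 5 concentrations, incubate 48 h, interpolate endpoints linearly. TGI denotes the concentration required for complete inhibition of growth.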
Columns and labels:
Assay in all cases: DTP human tumour cell line panel, 48 h
[1] = test system: SN12C renal
[2] = test system: OVCAR-5 ovarian
[3] = test system: TK-10 renal
[4] = test system: DLD-1 colon
[5] = test system: SK-MEL-5 melanoma
[6] = test system: 786-0 renal
[7] = test system: A498 renal
[8] = test system: NCI-H522 lung
[9] = test system: KM12 colon
[10] = test system: HOP-62 NSCLC
[11] = test system: IGROV1 ovarian
[12] = test system: HT29 colon
[13] = test system: RXF 393 renal
[14] = test system: EKVX NSCLC
[15] = test system: HCT-15 colon
[16] = test system: SR leukemia
[17] = test system: MOLT-4 leukemia
[18] = test system: HOP-18 NSCLC
[19] = test system: RXF-631 renal
[20] = test system: RPMI-8226 leukemia
[21] = test system: HOP-92 NSCLC
[22] = test system: XF 498 CNS
[23] = test system: UACC-257 melanoma
[24] = test system: CCRF-CEM leukemia
[25] = test system: UO-31 renal
[26] = test system: SF-268 CNS
[27] = test system: COLO 205 colon
[28] = test system: SF-539 CNS
[29] = test system: U251 CNS
[30] = test system: DMS 114 small cell lung
[31] = test system: LOX IMVI melanoma
[32] = test system: SK-OV-3 ovarian
[33] = test system: OVCAR-4 ovarian
[34] = test system: NCI-H23 lung
[35] = test system: KM20L2 colon
[36] = test system: HCT-116 colon
[37] = test system: SNB-75 CNS
[38] = test system: SF-295 CNS
[39] = test system: SK-MEL-2 melanoma
[40] = test system: OVCAR-3 ovarian
[41] = test system: HL-60(TB) leukemia
[42] = test system: A549 NSCLC
[43] = test system: UACC-62 melanoma
[44] = test system: SNB-78 CNS
[45] = test system: OVCAR-8 ovarian
[46] = test system: K-562 leukemia
[47] = test system: M14 melanoma
[48] = test system: NCI-H226 lung
[49] = test system: ACHN renal
[50] = test system: CAKI-1 renal
[51] = test system: NCI-H460 lung
[52] = test system: SK-MEL-28 melanoma
[53] = test system: SNB-19 CNS
[54] = test system: LXFL 529 NSCLC
[55] = test system: M19-MEL melanoma
[56] = test system: MALME-3M melanoma
[57] = test system: HCC-2998 colon
[58] = test system: DMS 273 small cell lung
[59] = test system: SW-620 colon

**Q.** What does the source list for `CC(C)=CC1CC(=O)C1(C)Sc1ccccc1` (stereo unspecified)?
**A.** TGI [1]: > 100 µM; TGI [2]: > 100 µM; TGI [3]: > 100 µM; TGI [4]: > 100 µM; TGI [5]: > 100 µM; TGI [6]: > 100 µM; TGI [7]: > 100 µM; TGI [8]: 69.1 µM; TGI [9]: > 100 µM; TGI [10]: > 100 µM; TGI [11]: > 100 µM; TGI [12]: 66.6 µM; TGI [13]: 72 µM; TGI [14]: > 100 µM; TGI [15]: 34.8 µM; TGI [16]: 41.4 µM; TGI [17]: 92.1 µM; TGI [18]: > 100 µM; TGI [19]: > 100 µM; TGI [20]: 45.9 µM; TGI [21]: 87 µM; TGI [22]: 95.7 µM; TGI [23]: > 100 µM; TGI [24]: 45 µM; TGI [25]: > 100 µM; TGI [26]: > 100 µM; TGI [27]: 65.1 µM; TGI [28]: > 100 µM; TGI [29]: > 100 µM; TGI [30]: 32.6 µM; TGI [31]: 36.1 µM; TGI [32]: > 100 µM; TGI [33]: > 100 µM; TGI [34]: > 100 µM; TGI [35]: > 100 µM; TGI [36]: > 100 µM; TGI [37]: > 100 µM; TGI [38]: > 100 µM; TGI [39]: > 100 µM; TGI [40]: > 100 µM; TGI [41]: 46.7 µM; TGI [42]: > 100 µM; TGI [43]: > 100 µM; TGI [44]: > 100 µM; TGI [45]: > 100 µM; TGI [46]: 59.4 µM; TGI [47]: > 100 µM; TGI [48]: > 100 µM; TGI [49]: > 100 µM; TGI [50]: > 100 µM; TGI [51]: 54.4 µM; TGI [52]: > 100 µM; TGI [53]: > 100 µM; TGI [54]: > 100 µM; TGI [55]: 72.1 µM; TGI [56]: > 100 µM; TGI [57]: > 100 µM

**Q.** What does the source list for `CN1CCC(SC2Cc3cc(Cl)ccc3Sc3ccccc32)CC1` (stereo unspecified)?
**A.** TGI [1]: 28.5 µM; TGI [2]: 30.3 µM; TGI [3]: 26.5 µM; TGI [4]: 28.2 µM; TGI [5]: 26.8 µM; TGI [6]: 27.7 µM; TGI [7]: 31.6 µM; TGI [8]: 28.4 µM; TGI [9]: 23.2 µM; TGI [11]: 29.6 µM; TGI [12]: 15.3 µM; TGI [13]: 17.1 µM; TGI [14]: 34 µM; TGI [15]: 31.1 µM; TGI [16]: 23.1 µM; TGI [17]: 20.3 µM; TGI [18]: 26.7 µM; TGI [19]: 27.9 µM; TGI [20]: 23.3 µM; TGI [21]: 26.9 µM; TGI [58]: 26.2 µM; TGI [22]: 30 µM; TGI [23]: 21.3 µM; TGI [25]: 16.7 µM; TGI [26]: 25.5 µM; TGI [27]: 27.2 µM; TGI [28]: 33.8 µM; TGI [29]: 27.9 µM; TGI [31]: 25.7 µM; TGI [32]: 30.4 µM; TGI [33]: 29 µM; TGI [34]: 27.9 µM; TGI [35]: 17.8 µM; TGI [36]: 22.5 µM; TGI [37]: 22.2 µM; TGI [38]: 30.7 µM; TGI [40]: 28.2 µM; TGI [41]: 19.5 µM; TGI [42]: 29.7 µM; TGI [43]: 11.4 µM; TGI [45]: 31.5 µM; TGI [46]: 21.9 µM; TGI [47]: 15.7 µM; TGI [48]: 30 µM; TGI [49]: 28.6 µM; TGI [50]: 23.7 µM; TGI [51]: 31.4 µM; TGI [52]: 4.78 µM; TGI [53]: 29 µM; TGI [54]: 26.3 µM; TGI [55]: 25.3 µM; TGI [56]: 28.8 µM; TGI [59]: 30.9 µM; TGI [57]: 21.3 µM

Reference: PubChem BioAssay (NCI)
